Assay results reported in paper PMC6017357, “In Vitro Inhibitory Effects of Synthetic Cannabinoid EAM-2201 on Cytochrome P450 and UDP-Glucuronosyltransferase Enzyme Activities in Human Liver Microsomes” (Molecules : A Journal of Synthetic Chemistry and Natural …, 2018).

Molecular target: CYP2C19 (Homo sapiens, UniProt P33261)
Experiment: CYP2C19-mediated [S]-mephenytoin 4′-hydroxylation in human liver microsomes (IC50 and time-dependent inhibition)
Format: in vitro ADME
Design: from tissue; host or cells: ultrapooled human liver microsomes
Description: The inhibitory potential (IC50 values) of EAM-2201 on CYP1A2, CYP2A6, CYP2C8, CYP2C9, CYP2C19, CYP2D6 and CYP3A4 were evaluated using ultrapooled human liver microsomes and a cocktail of seven CYP substrates followed by LC-tandem mass spectrometry (LC-MS/MS) as previously described. Each incubation mixture was prepared in a total volume of 100 µL as follows: pooled human liver microsomes (5.2 pmol CYP), 1.0 mM NADPH, 10 mM magnesium chloride, 50 mM potassium phosphate buffer (pH 7.4), various concentrations of EAM-2201 in DMSO (final concentrations of 0.1–50 µM, 0.5% DMSO) and a cocktail of seven CYP probe substrates in 50% acetonitrile (0.5% acetonitrile), including 50 µM phenacetin, 2.5 µM coumarin, 2.0 µM amodiaquine, 10 µM diclofenac, 100 µM [S]-mephenytoin, 5 µM bufuralol and 2.5 µM midazolam in 50% acetonitrile. After a 3-min preincubation at 37 °C, the reactions were initiated by adding NADPH and incubation proceeded for 15 min at 37 °C in a shaking water bath. The reactions were stopped by adding 100 µL of ice-cold methanol containing internal standards (^13C2,^15N-acetaminophen for acetaminophen and N-desethylamodiaquine; d9-1′-hydroxybufuralol for 4′-hydroxydiclofenac, 7-hydroxycoumarin, 4′-hydroxymephenytoin, 1′-hydroxybufuralol and 1′-hydroxy-midazolam). The incubation mixtures were centrifuged at 13,000× g for 4 min at 4 °C and 50 µL of each supernatant was diluted in 50 µL of water. Aliquots (5 µL) of the diluted supernatants were analyzed using LC-MS/MS. All assays were performed in triplicate and the mean values were used in calculations. […] Each reaction was initiated by adding the seven-CYP probe substrate cocktail described above.
The time-dependent inhibitory effects of EAM-2201 on CYP2C8, CYP2C9, CYP2C19 and CYP3A4 activities in ultrapooled human liver microsomes were evaluated using time- and concentration-dependent inhibition assays. Ultrapooled human liver microsomes (26.0 pmol CYP) were pre-incubated with various concentrations of EAM-2201 in DMSO (0.5% DMSO) in 50 mM potassium phosphate buffer (pH 7.4) in the presence of NADPH for predetermined time periods: 5–15 min for CYP2C8 activity, 5–20 min for CYP2C9 activity and 15–40 min for CYP2C19 and CYP3A4 activities. […] Aliquots (5 µL) of the diluted supernatants were analyzed using LC-MS/MS.
The metabolites formed from CYP substrates were simultaneously quantified using our previously described LC-MS/MS method. […]

CYP2C19, sequence (P33261 whole entry): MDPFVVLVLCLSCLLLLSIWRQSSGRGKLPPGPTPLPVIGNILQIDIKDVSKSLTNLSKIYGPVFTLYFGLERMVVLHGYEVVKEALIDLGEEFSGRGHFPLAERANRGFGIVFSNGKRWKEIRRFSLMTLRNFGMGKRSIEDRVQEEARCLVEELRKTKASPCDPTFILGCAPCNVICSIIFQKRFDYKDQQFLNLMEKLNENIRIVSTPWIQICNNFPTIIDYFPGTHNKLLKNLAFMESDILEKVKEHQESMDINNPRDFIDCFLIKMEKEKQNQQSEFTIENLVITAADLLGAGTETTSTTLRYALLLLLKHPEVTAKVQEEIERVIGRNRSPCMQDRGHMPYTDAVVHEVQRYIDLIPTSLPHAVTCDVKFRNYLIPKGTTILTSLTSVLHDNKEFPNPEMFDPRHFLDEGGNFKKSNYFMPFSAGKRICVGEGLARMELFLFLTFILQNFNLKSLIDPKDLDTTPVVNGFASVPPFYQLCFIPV

CCc1ccc(C(=O)c2cn(CCCCCF)c3ccccc23)c2ccccc12 [EAM-2201, (4-ethyl-1-naphthalenyl)[1-(5-fluoropentyl)-1H-indol-3-yl]-methanone]
IC50: 10.9 µM | inactivation efficiency (kinact/Ki), CYP2C19 (human liver microsomes): 115 M⁻¹ s⁻¹ | kinact (human, ultrapooled human liver microsomes, pH 7.4, probe [S]-mephenytoin (100 µM), 4′-hydroxylation, read-out: kinact, time-dependent inhibition of CYP2C19 [S]-mephenytoin 4′-hydroxylase (converted)): 0.00044 s⁻¹ | inhibition of CYP2C19-mediated [S]-mephenytoin 4′-hydroxylation (up to 50 µM, without 30-min preincubation, human liver microsomes): negligibly inhibited
